Results published in patent US10183022B2, “Pharmaceutical composition for treating ulcerative colitis” (EA Pharma Co., Ltd., priority 2014, dated 2019).

Tested on: ulcerative colitis patients in an active stage
Experiment: Clinical study, 960 mg orally 3 times a day for 8 weeks: subscore for bloody stool of Mayo score, bloody-stool disappearance rate
Format: in vivo, human
Parameters: Cases by subscore for bloody stool, figure in parentheses: unit not given here
Method: The compound of Example 1 or the compound of Comparative Example 1 was orally administered after meals 3 times a day. The number of the given tablets was 8 per administration (i.e., the amount of the compound (1) of Example 1 administered was 960 mg per administration). The administration period was 8 weeks. The compounds were administered until the timing after the breakfast on the day before the assessment day at Week 8.
(2) Bloody Stool [Investigation Timings: Weeks 0, 2, 4, and 8 (or Discontinuation Time)]
Based on the contents described in the symptom-recording diaries, the investigators or sub-investigators investigated the states of bloody stool in 3 days immediately before each assessment day. Note that when the endoscopic examination on the large intestine was conducted, the investigation days were set to be the closest three days excluding the day of the endoscopic examination on the large intestine, the following day, and if a pre-treatment was performed for the endoscopic examination on the large intestine, the pre-treatment day.
The bloody stool state on the most severe day among the investigated three days was scored according to the following criteria.

COC(=O)[C@H](Cc1ccc(-n2c(=O)c3cc(N(C)C)ccc3n(C)c2=O)cc1)NC(=O)c1c(Cl)cccc1Cl [Example 1, methyl(2S)-2-(2,6-dichlorobenzamide)-3-{4-[6-(dimethylamino)-1-methyl-2,4-dioxo-1,4-dihydroquinazolin-3(2H)-yl]phenyl}propanoate]
Cases by subscore for bloody stool, figure in parentheses (Week 0, score 1): 45.1 | Number of cases by subscore for bloody stool (Week 0, score 1): 23 | Cases by subscore for bloody stool, figure in parentheses (Week 0, score 2): 47.1 | Number of cases by subscore for bloody stool (Week 0, score 2): 24 | Cases by subscore for bloody stool, figure in parentheses (Week 0, score 3): 7.8 | Number of cases by subscore for bloody stool (Week 0, score 3): 4 | Cases by subscore for bloody stool, figure in parentheses (Week 2, score 0): 9.8 | Number of cases by subscore for bloody stool (Week 2, score 0): 5 | Cases by subscore for bloody stool, figure in parentheses (Week 2, score 1): 54.9 | Number of cases by subscore for bloody stool (Week 2, score 1): 28 | Cases by subscore for bloody stool, figure in parentheses (Week 2, score 2): 33.3 | Number of cases by subscore for bloody stool (Week 2, score 2): 17 | Cases by subscore for bloody stool, figure in parentheses (Week 2, score 3): 2.0 | Number of cases by subscore for bloody stool (Week 2, score 3): 1 | Number of cases, cross tabulation of subscore for bloody stool (Week 2 score 0, Week 0 score 1): 2 | Number of cases, cross tabulation of subscore for bloody stool (Week 2 score 0, Week 0 score 2): 2 | Number of cases, cross tabulation of subscore for bloody stool (Week 2 score 0, Week 0 score 3): 1 | Number of cases, cross tabulation of subscore for bloody stool (Week 2 score 1, Week 0 score 1): 18 | Number of cases, cross tabulation of subscore for bloody stool (Week 2 score 1, Week 0 score 2): 8 | Number of cases, cross tabulation of subscore for bloody stool (Week 2 score 1, Week 0 score 3): 2 | Number of cases, cross tabulation of subscore for bloody stool (Week 2 score 2, Week 0 score 1): 3 | Number of cases, cross tabulation of subscore for bloody stool (Week 2 score 2, Week 0 score 2): 14 | Number of cases, cross tabulation of subscore for bloody stool (Week 2 score 2, Week 0 score 3): 0 | Number of cases, cross tabulation of subscore for bloody stool (Week 2 score 3, Week 0 score 1): 0 | Number of cases, cross tabulation of subscore for bloody stool (Week 2 score 3, Week 0 score 2): 0 | Number of cases, cross tabulation of subscore for bloody stool (Week 2 score 3, Week 0 score 3): 1 | Cases by subscore for bloody stool, figure in parentheses (Week 4, score 0): 35.3 | Number of cases by subscore for bloody stool (Week 4, score 0): 18 | Cases by subscore for bloody stool, figure in parentheses (Week 4, score 1): 43.1 | Number of cases by subscore for bloody stool (Week 4, score 1): 22 | Cases by subscore for bloody stool, figure in parentheses (Week 4, score 2): 19.6 | Number of cases by subscore for bloody stool (Week 4, score 2): 10 | Cases by subscore for bloody stool, figure in parentheses (Week 4, score 3): 2.0 | Number of cases by subscore for bloody stool (Week 4, score 3): 1 | Number of cases, cross tabulation of subscore for bloody stool (Week 4 score 0, Week 0 score 1): 9 | Number of cases, cross tabulation of subscore for bloody stool (Week 4 score 0, Week 0 score 2): 8 | Number of cases, cross tabulation of subscore for bloody stool (Week 4 score 0, Week 0 score 3): 1 | Number of cases, cross tabulation of subscore for bloody stool (Week 4 score 1, Week 0 score 1): 12 | Number of cases, cross tabulation of subscore for bloody stool (Week 4 score 1, Week 0 score 2): 9 | Number of cases, cross tabulation of subscore for bloody stool (Week 4 score 1, Week 0 score 3): 1 | Number of cases, cross tabulation of subscore for bloody stool (Week 4 score 2, Week 0 score 1): 2 | Number of cases, cross tabulation of subscore for bloody stool (Week 4 score 2, Week 0 score 2): 7 | Number of cases, cross tabulation of subscore for bloody stool (Week 4 score 2, Week 0 score 3): 1 | Number of cases, cross tabulation of subscore for bloody stool (Week 4 score 3, Week 0 score 1): 0 | Number of cases, cross tabulation of subscore for bloody stool (Week 4 score 3, Week 0 score 2): 0 | Number of cases, cross tabulation of subscore for bloody stool (Week 4 score 3, Week 0 score 3): 1 | Difference in bloody-stool disappearance rates, Example 1 vs Comparative Example 1 (placebo) (Week 8): 29.4% | Bloody-stool disappearing cases (Week 8, 51 cases analyzed): 25 | Bloody-stool disappearance rate (Week 8, all subjects): 49.0% | Cases by subscore for bloody stool, figure in parentheses (Week 8, score 0): 49.0 | Number of cases by subscore for bloody stool (Week 8, score 0): 25 | Cases by subscore for bloody stool, figure in parentheses (Week 8, score 1): 37.3 | Number of cases by subscore for bloody stool (Week 8, score 1): 19 | Cases by subscore for bloody stool, figure in parentheses (Week 8, score 2): 11.8 | Number of cases by subscore for bloody stool (Week 8, score 2): 6 | Cases by subscore for bloody stool, figure in parentheses (Week 8, score 3): 2.0 | Number of cases by subscore for bloody stool (Week 8, score 3): 1 | Number of cases, cross tabulation of subscore for bloody stool (Week 8 score 0, Week 0 score 1): 13 | Number of cases, cross tabulation of subscore for bloody stool (Week 8 score 0, Week 0 score 2): 9 | Number of cases, cross tabulation of subscore for bloody stool (Week 8 score 0, Week 0 score 3): 3 | Number of cases, cross tabulation of subscore for bloody stool (Week 8 score 1, Week 0 score 1): 8 | Number of cases, cross tabulation of subscore for bloody stool (Week 8 score 1, Week 0 score 2): 11 | Number of cases, cross tabulation of subscore for bloody stool (Week 8 score 1, Week 0 score 3): 0 | Number of cases, cross tabulation of subscore for bloody stool (Week 8 score 2, Week 0 score 1): 2 | Number of cases, cross tabulation of subscore for bloody stool (Week 8 score 2, Week 0 score 2): 4 | Number of cases, cross tabulation of subscore for bloody stool (Week 8 score 2, Week 0 score 3): 0 | Number of cases, cross tabulation of subscore for bloody stool (Week 8 score 3, Week 0 score 1): 0 | Number of cases, cross tabulation of subscore for bloody stool (Week 8 score 3, Week 0 score 2): 0 | Number of cases, cross tabulation of subscore for bloody stool (Week 8 score 3, Week 0 score 3): 1
